# Experiments:
# A. fumigatus IFM 40808 = assay: Test 2: In vitro antifungal activity against Aspergillus fumigatus (MIC); assay type: cell-based; settings: IFM40808, RPMI 1640 with 0.165M MOPS, pH 7, 35° C., 24 hours
# Procedure: Test 2: In vitro antifungal activity against Aspergillus fumigatus
# (§1) They were incubated at 35° C. for 24 hours.
# C. albicans IFM 40009 = assay: Test 4: In vivo antifungal activity against Candida albicans (survival of infected mice); set-up: species or system Candida albicans; male ICR (CRJ: CD-1) mouse; settings: oral 1.25 mg/kg each, four times in total; for Mean survival days: 14 days after infection, vs. control ***: p < 0.001, **: p < 0.01; for Survival mice on 14-th day: survivors/mice of group
# Procedure: Test 4: In vivo antifungal activity against Candida albicans
# After 4-week-old, male, ICR (CRJ: CD-1) mouse was fasted for 6 hours, C. albicans IFM 40009 was inoculated to a tail vein of the mouse to give an amount of 3.0×10^6 cells/mouse, whereby infection was caused. A control group consisted of 8 mice, while a chemical-administered group consisted of 5 mice. The chemical was orally administered once an hour after the inoculation of the fungus and 24 hours after the inoculation, and once a day consecutively, four times in total, at 1.25 mg/kg each. The survival during 14 days after the infection was counted. In addition, the mean survival days of the control group and the mean survival days of the chemical-administered group were compared and statistically analyzed by the Kaplan-Meire method (Cox mantel test).
# A. flavus IFM 41935 = assay: Test 3: In vitro antifungal activity against Aspergillus flavus (MIC); assay type: cell-based; settings: IFM41935, RPMI 1640 with 0.165M MOPS, pH 7, 35° C., 24 hours
# Procedure: Test 3: In vitro antifungal activity against Aspergillus flavus
# as §1
# C. albicans ATCC 44859 = assay: Test 1: In vitro antifungal activity against Candida albicans (suppression of mycelial type growth); assay type: cell-based; settings: ATCC44859, minimum concentration permitting apparent suppression of mycerial type growth, 10% fetal bovine serum added MEM, 37° C., 20 hours, read-out: Terminal Point C. albicans
# Procedure: Test 1: In vitro antifungal activity against Candida albicans
# They were incubated at 37° C. for 20 hours in a CO2 gas incubator. After incubation, morphological change of C. albicans was observed under an inverted microscope.
Compound,MIC (A. fumigatus IFM 40808) [µg/mL],Mean survival days (C. albicans IFM 40009) [days],Survival mice on 14-th day (C. albicans IFM 40009),MIC (A. flavus IFM 41935) [µg/mL],MIC (C. albicans ATCC 44859) [µg/mL]
"COCCS(=O)(=O)C(F)(F)C(O)(Cn1cncn1)c1ccc(F)cc1F (stereo not drawn) [Example 21, 2-(2,4-difluorophenyl)-1,1-difluoro-1-(2-methoxyethyl)sulfonyl-3-(1H-1,2,4-triazol-1-yl)propan-2-ol]",16,14.0,4/5,32,0.0625
"COCCSC(F)(F)C(O)(Cn1cncn1)c1ccc(F)cc1F (stereo not drawn) [Example 15, 2-(2,4-difluorophenyl)-1,1-difluoro-1-(2-methoxyethyl)thio-3-(1H-1,2,4-triazol-1-yl)propan-2-ol]",4,–,–,8,0.0156
"OC(Cn1cncn1)(Cn1cncn1)c1ccc(F)cc1F [Fluconazole, reference compound]",> 128,9.6,0/5,> 128,0.25
"CC(=O)OCCSC(F)(F)C(O)(Cn1cncn1)c1ccc(F)cc1F (stereo not drawn) [Example 14, 1-(2-acetoxyethyl)thio-2-(2,4-difluorophenyl)-1,1-difluoro-3-(1H-1,2,4-triazol-1-yl)propan-2-ol]",8,–,–,4,0.0313
"O=S(=O)(CCO)C(F)(F)C(O)(Cn1cncn1)c1ccc(F)cc1F (stereo not drawn) [Example 20, 2-(2,4-difluorophenyl)-1,1-difluoro-1-(2-hydroxyethyl)sulfonyl-3-(1H-1,2,4-triazol-1-yl)propan-2-ol]",–,14.0,5/5,–,–
"OCCSC(F)(F)C(O)(Cn1cncn1)c1ccc(F)cc1F (stereo not drawn) [Example 18, 2-(2,4-difluorophenyl)-1,1-difluoro-1-(2-hydroxyethyl)thio-3-(1H-1,2,4-triazol-1-yl)propan-2-ol]",64,–,–,64,0.25
